# Measured values taken from PMC10447463, “Data-mining unveils structure–property–activity correlation of viral infectivity enhancing self-assembling peptides” (Nature Communications, 2023).
# Where two headings read alike, the source gives them in different places.
# Tests used:
# [1] = Zeta-potential measurement; assay type: physicochemical; conditions: for Zeta pot. / mV: 1 mg/mL in PBS pH 7.4 from 10 mg/mL DMSO stock, 1 d RT, 60 µL diluted in 600 µL 1 mM KCl, Zetasizer Nano ZS, Smoluchowski, mean of triplicate
# Method in brief: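 In this measurement, peptides aggregated for a day at RT in phosphate-buffered saline (pH 7.4, 1 mg/mL) are diluted into 1 mM potassium chloride, and the electrophoretic mobility is translated into zeta potential by Smoluchowski's relation.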
# [2] = assay type: physicochemical; parameters: key to Fibril / Fibril Formation / TEM 2cat / Fibril: 1 = fibrils present; 0 non-fibrillar structures; conditions: for Fibril / Fibril Formation: 1 mg/mL, uranyl acetate stain, qualitative
# [3] = β-sheet content by ATR-FT-IR; assay type: physicochemical; conditions: for b -sheet / %: Fig. S7 panel A, β-sheet content by ATR-FT-IR; for ß-sheet / %: ATR-FT-IR of lyophilised 1 mg/mL PNF solution, peak integral ratio 1625-1635 cm-1, measured once; for beta sheet: peptides with TEM 2cat 0
# Procedure: For ATR FT–IR spectroscopy measurements, 200 µL of the respective 1 mg/mL PNF solution was lyophilized and the resulting powder used for measurement. All spectra were recorded on a Bruker Tensor 27 spectrometer with a diamond crystal as ATR element (PIKE MiracleTM, spectral resolution 2 cm^-1). Every sample was measured with 64 scans. Data were analyzed with OriginLab software and calculation of β–sheet content was conducted according to a previous report. TEM. For TEM measurements 5 µL of PNF fibrils (1 mg/mL) were placed on copper grids coated with carbon and formvar layer (300 mesh, Plano GmbH). After 10 min incubation time, the grids were staining with 4% uranyl acetate solution for 2.5 min and washed with water. Measurements were performed on a Jeol 1400 electron microscope with 120 kV acceleration voltage. CR Assay. For the determination of the amount of peptide monomer converting into nanostructures the amine reactive dye fluorescamine was used analogous to a previous reported protocol. Briefly, 100 µL of the preformed PNF solution was centrifuged in a Vivaspin 500 tube (3 kDa MWCO) to separate fibers from free peptide monomer (16200 x g, 4 °C, 45 min). The filtrate and 100 μL of the non-filtered PNF sample were lyophilized and dissolved in 30 μL DMSO. 10 μL of the filtrate and non-filtered DMSO samples were submitted in a black UV Star® 384 microliter well–plates (Greiner bio–one) and 3 μL of the fluorescamine solution (10 mg/mL, DMSO) was added to measure the fluorescence enhancement. After 20 min of incubation at RT, fluorescence was recorded on an Infinite® M1000 PRO microplate reader (Tecan) at λem = 470 nm upon excitation at λex = 365 nm with 10 nm bandwidths and multiple reads per well (3×3). Measurements were repeated in triplicates and averaged with standard deviation. All values were calculated as n-fold fluorescence enhancement (DMSO only as a reference was set to 1). The conversion rate CR was defined according to the equation Eq. (3).3 CR=100−100×fluorescenceintensityfiltrate/fluorescenceintensityoriginal[%]
# [4] = zeta potential of peptide assemblies
# [5] = zeta-potential of peptide, source data of Figure 2C
# [6] = zeta-potential of the peptide assemblies, mean, Figure 3A source data
# [7] = Fig S10 panel D, fibril category by TEM
# [8] = TEM, 1 = fibrils present, 0 = non-fibrillar
# [9] = TEM, 1 = fibrils present, 0 = non-fibrillar structures
# [10] = category: fibrils present or non-fibrillar
# [11] = FigS12 panel A, fibril category by TEM
Substance,"Zeta-Pot. [1, 4]","Zeta-Potential / mV [1, 5] [mV]","Zeta-Potential / mV [1, 6] [mV]","TEM 2cat [2, 7]",Fibril / Fibril Formation ([2]; TEM),"Fibril [2, 8]","Fibril [2, 9]","TEM 2cat [2, 10]",b -sheet / % [3] [%],Zeta-Pot. [1],Zeta pot. / mV [1] [mV],TEM 2cat ([2]; Fig S10 panel D),Fibril ([2]; Fig S10 panel E),"TEM 2cat [2, 11]","Fibril ([2]; FigS12 panel B, TEM)",ß-sheet / % [3] [%],beta sheet [3]
MKIKIQINMWQ,10.8,11.2,10.8,1,1,1,1,1,39.2,–,–,–,–,–,–,–,–
QCKAKAQANMWQ,–,-4.813,-8.05,–,0,0,0,–,32.8999,-8.05,-8.1,0,0,0,0,33,–
KLKLKLQL,8.39,8.477,8.39,1,1,1,1,–,42.3363,–,–,–,–,1,1,–,–
KVKVQVVV,0.147,1.657,0.15,1,1,1,1,–,45.8125,–,–,–,–,1,1,–,–
CEIEIQINM,-15.3,-22.07,-15.3,1,1,1,1,–,46.31,–,–,–,1,1,1,–,–
CKAKAQA,-8.01,-5.031,-8.01,0,0,0,0,–,34.73,–,–,–,0,0,0,–,–
RGDCKFKFQF,13.87,16.37,13.87,1,1,1,1,1,46.68,–,–,–,1,–,–,–,–
QCKAKAQANM,–,-4.641,-8.36,–,0,0,0,–,35.27,-8.357,-8.4,0,0,0,0,35,–
CKIKQII,-3.83,5.568,-3.83,1,1,1,1,–,25,–,-3.83,–,1,1,1,–,–
CKIKIQINM,16.83,14.3,16.83,1,1,1,1,1,42.84,–,–,–,1,–,–,–,–
KIKIKIQINMWQ,–,13,13.1,1,1,1,1,1,39.61,13.1,–,–,–,–,–,–,–
KIKIKIKIWWWW,15.2,14.82,15.2,0,0,0,0,0,37.79,–,–,–,–,–,–,–,–
CKAKAQANM,–,-4.618,-7.77,–,0,0,0,–,34.22,-7.773,-7.8,0,0,0,0,34,–
CQFQFQF,-24.8,-25.37,-24.8,1,1,1,1,1,34.9,–,–,–,–,–,–,–,–
RGDKIKIQIC,16.5,17.27,16.5,1,1,1,1,1,40.73,–,–,–,1,–,–,–,–
RGDKIKIQINMWQ,6.59,11.21,6.59,1,1,1,1,1,49.07,–,–,–,1,–,–,–,–
HHHHKIKIKIKIYYYY,13.2,12.88,13.2,0,0,0,0,0,53.27,–,–,–,–,–,–,–,53
CKFKFQFW,–,16.02,15.2,1,1,1,1,1,42.53,15.2,–,–,1,–,–,–,–
HHHHKIKIQINMYYYY,7.807,7.147,7.81,1,1,1,1,1,46.73,–,–,–,1,–,–,–,–
KFKFQFW,–,8.995,6.49,1,1,1,1,1,35.45,6.49,–,–,–,–,–,–,–
KIKIQINMWWWQ,–,9.633,9.45,0,0,0,0,0,47.92,9.45,–,–,–,–,–,–,48
KAKAKAQA,-9.01,-5.297,-9.01,0,0,0,0,–,39.62,–,–,–,–,0,0,–,–
RGDKIKIQINM,16.43,16.22,16.43,1,1,1,1,1,45.52,–,–,–,1,–,–,–,–
CKFKQFFNMWQ,–,10.915,8.56,–,1,1,1,1,59.11,8.563,–,1,1,–,–,–,–
